For this test, the target named is T1, RXFP1 (Homo sapiens, UniProt Q9HBX9).
T1 construct: OVCAR5 cells expressing endogenous RXFP1; endogenous in cells; host or cells: OVCAR5
T1 sequence (Q9HBX9 1-757): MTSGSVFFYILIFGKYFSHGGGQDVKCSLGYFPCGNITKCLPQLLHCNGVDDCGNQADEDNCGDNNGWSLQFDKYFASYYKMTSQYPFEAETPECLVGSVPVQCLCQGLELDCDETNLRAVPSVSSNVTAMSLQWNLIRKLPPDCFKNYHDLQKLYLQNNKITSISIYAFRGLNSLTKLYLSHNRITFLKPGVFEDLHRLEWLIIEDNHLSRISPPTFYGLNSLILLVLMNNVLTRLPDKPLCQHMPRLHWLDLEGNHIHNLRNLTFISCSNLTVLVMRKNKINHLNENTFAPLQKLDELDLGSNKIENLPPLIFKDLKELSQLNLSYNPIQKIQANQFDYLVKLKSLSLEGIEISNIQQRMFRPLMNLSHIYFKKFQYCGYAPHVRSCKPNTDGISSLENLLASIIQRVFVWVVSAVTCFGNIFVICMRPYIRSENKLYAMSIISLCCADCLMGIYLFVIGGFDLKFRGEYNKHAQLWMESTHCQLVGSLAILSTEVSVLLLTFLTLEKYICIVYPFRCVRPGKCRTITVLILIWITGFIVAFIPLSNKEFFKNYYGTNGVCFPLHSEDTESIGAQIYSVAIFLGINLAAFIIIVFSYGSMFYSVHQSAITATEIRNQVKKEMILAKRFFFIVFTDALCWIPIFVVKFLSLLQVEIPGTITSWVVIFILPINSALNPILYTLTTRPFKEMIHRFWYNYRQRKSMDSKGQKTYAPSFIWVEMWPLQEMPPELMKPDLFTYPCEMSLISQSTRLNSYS
In words: OVCAR5 cAMP assay (HTRF). Format: cell-based. The settings on record: for EC50: OVCAR 5 cells expressing endogenous RXFP1, cAMP readout; for Emax: OVCAR 5 cells, maximal cAMP relative to H2-relaxin. The method, boiled down:
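Endogenous RXFP1 in OVCAR5 cells, pretreated 40 min at 37° C with 1 mM IBMX, then exposed to increasing peptide concentrations in serum-free medium for 30 min at 37° C. cAMP read by HTRF; EC50 by variable-slope sigmoidal fit, Emax as % of H2-relaxin maximal cAMP in same run.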
(Changes in cAMP serve as a functional read-out for many G protein-coupled receptors.)

Starred links: 1 amine or outer side, 2 acyl side, 3 side chain; linkers in the order of their positions; H or OH if unused. Non-standard residues stand in square brackets, D forms with d. Residues, ends and D or L forms follow the SMILES beside them. Groups on a side chain read outwards from the residue. *: point of attachment. X5 = CCCCCCCCCCCCCCCC(=O)N[C@@H](CCC(=O)N[C@@H](CCC(=O)N[C@@H](CCC(=O)NCCCOCCOCCOCCCNC(=O)CCC(=O)NCCCOCCOCCOCCCNC(=O)CCC(=O)NCCCOCCOCCOCCCNC(=O)CCC(=O)NCCCOCCOCCOCCCN*)C(=O)O)C(=O)O)C(=O)O; X1 = CCCCCCCCCCCCCCCC(=O)N[C@@H](CCC(=O)N[C@@H](CCC(=O)N[C@@H](CCC(=O)NCCCOCCOCCOCCCNC(=O)CCC(=O)NCCCOCCOCCOCCCNC(=O)CCC(=O)NCCCOCCOCCOCCCN*)C(=O)O)C(=O)O)C(=O)O; X14 = CCCCCCCCCCCCCCCCCC(=O)N[C@@H](CCC(=O)N[C@@H](CCC(=O)N[C@@H](CCC(=O)N[C@@H](CCC(=O)NCCCOCCOCCOCCCNC(=O)CCC(=O)NCCCOCCOCCOCCCN*)C(=O)O)C(=O)O)C(=O)O)C(=O)O; X6 = CCCCCCCCCCCCCC(=O)N[C@@H](CCC(=O)N[C@@H](CCC(=O)N[C@@H](CCC(=O)NCCCOCCOCCOCCCNC(=O)CCC(=O)NCCCOCCOCCOCCCNC(=O)CCC(=O)NCCCOCCOCCOCCCN*)C(=O)O)C(=O)O)C(=O)O; X9 = CCCCCCCCCCCCCCCC(=O)N[C@@H](CCC(=O)N[C@@H](CCC(=O)NCCCOCCOCCOCCCNC(=O)CCC(=O)NCCCOCCOCCOCCCN*)C(=O)O)C(=O)O; αMeF = C[C@](N)(Cc1ccccc1)C(=O)O; Suc = O=C(CCC(=O)[*:2])[*:1]; αMeK = C[C@](N)(CCCCN)C(=O)O; hLys = NCCCCC[C@H](N)C(=O)O; Aib = CC(C)(N)C(=O)O

As to `CCCCCCCCCCCCCCCCCC(=O)N[C@@H](CCC(=O)N[C@@H](CCC(=O)N[C@@H](CCC(=O)N[C@@H](CCC(=O)NCCCOCCOCCOCCCNC(=O)CCC(=O)NCCCOCCOCCOCCCNC(=O)CCC(=O)NCCCC[C@H](NC(=O)CNC(=O)[C@H](CCC(=O)O)NC(=O)C(C)(C)NC(=O)C(C)(C)NC(=O)[C@@H](NC(=O)[C@H](CCCCNC(C)=O)NC(=O)[C@H](C)NC(=O)[C@H](CCCNC(=N)N)NC(=O)[C@@H](NC(=O)[C@H](CCCCN)NC(=O)[C@H](CCC(=O)O)NC(=O)[C@H](CCCNC(=N)N)NC(=O)CNC(=O)[C@H](CCC(=O)O)NC(=O)[C@H](CC(C)C)NC(C)=O)C(C)C)[C@@H](C)CC)C(=O)N[C@@H](CO)C(=O)N[C@H](C(=O)N[C@@H](Cc1c[nH]c2ccccc12)C(=O)N[C@@H](CO)C(=O)NC(C)(C)C(=O)N[C@@H](CCCNC(=N)N)C(=O)N[C@@H](CCCCN)C(=O)N[C@@H](CCCCNC(C)=O)C(N)=O)[C@@H](C)O)C(=O)O)C(=O)O)C(=O)O)C(=O)O` [compound 54] (Ac-LEGREKVRAK(Ac)I[Aib][Aib]EGK([Suc-X14])STWS[Aib]RKK(Ac)-NH2), the response was half-maximal at 0.16 nM (EC50) and the Emax was 96%.

`CCCCCCCCCCCCCCCC(=O)N[C@@H](CCC(=O)N[C@@H](CCC(=O)N[C@@H](CCC(=O)NCCCOCCOCCOCCCNC(=O)CCC(=O)NCCCOCCOCCOCCCNC(=O)CCC(=O)NCCCOCCOCCOCCCNC(=O)CCC(=O)NCCCC[C@H](NC(=O)CNC(=O)[C@H](CCC(=O)O)NC(=O)C(C)(C)NC(=O)C(C)(C)NC(=O)[C@@H](NC(=O)[C@H](CCCCNC(C)=O)NC(=O)[C@H](C)NC(=O)[C@H](CCCNC(=N)N)NC(=O)[C@@H](NC(=O)[C@H](CCCCN)NC(=O)[C@H](CCC(=O)O)NC(=O)[C@H](CCCNC(=N)N)NC(=O)CNC(=O)[C@H](CCC(=O)O)NC(=O)[C@H](CC(C)C)NC(C)=O)C(C)C)[C@@H](C)CC)C(=O)N[C@@H](CO)C(=O)N[C@H](C(=O)N[C@@](C)(Cc1ccccc1)C(=O)N[C@@H](CO)C(=O)N[C@@H](CCCNC(=N)N)C(=O)N[C@@H](CCCNC(=N)N)C(=O)N[C@@H](C)C(=O)N[C@@H](CCCCNC(C)=O)C(N)=O)[C@@H](C)O)C(=O)O)C(=O)O)C(=O)O` [compound 89] (Ac-LEGREKVRAK(Ac)I[Aib][Aib]EGK([Suc-X1])ST[αMeF]SRRAK(Ac)-NH2): the EC50 came to 0.1 nM and the Emax amounted to 97%.

Take `CCCCCCCCCCCCCCCC(=O)N[C@@H](CCC(=O)N[C@@H](CCC(=O)NCCCOCCOCCOCCCNC(=O)CCC(=O)NCCCOCCOCCOCCCNC(=O)CCC(=O)NCCCC[C@H](NC(=O)CNC(=O)[C@H](CCC(=O)O)NC(=O)C(C)(C)NC(=O)C(C)(C)NC(=O)[C@@H](NC(=O)[C@H](CCCCNC(C)=O)NC(=O)[C@H](C)NC(=O)[C@H](CCCNC(=N)N)NC(=O)[C@@H](NC(=O)[C@H](CCCCN)NC(=O)[C@H](CCC(=O)O)NC(=O)[C@H](CCCNC(=N)N)NC(=O)CNC(=O)[C@H](CCC(=O)O)NC(=O)[C@H](CC(C)C)NC(C)=O)C(C)C)[C@@H](C)CC)C(=O)N[C@@H](CO)C(=O)N[C@H](C(=O)N[C@@H](Cc1ccccc1)C(=O)N[C@@H](CO)C(=O)N[C@@](C)(CCCCN)C(=O)N[C@@H](CCCNC(=N)N)C(=O)N[C@@H](C)C(=O)N[C@@H](CCCCNC(C)=O)C(N)=O)[C@@H](C)O)C(=O)O)C(=O)O` [compound 9] (Ac-LEGREKVRAK(Ac)I[Aib][Aib]EGK([Suc-X9])STFS[αMeK]RAK(Ac)-NH2): the midpoint of the response, the EC50, lay at 0.7 nM and the Emax is 93%.

With `CCCCCCCCCCCCCCCC(=O)N[C@@H](CCC(=O)N[C@@H](CCC(=O)N[C@@H](CCC(=O)NCCCOCCOCCOCCCNC(=O)CCC(=O)NCCCOCCOCCOCCCNC(=O)CCC(=O)NCCCOCCOCCOCCCNC(=O)CCC(=O)NCCCC[C@H](NC(=O)CNC(=O)[C@H](CCC(=O)O)NC(=O)C(C)(C)NC(=O)C(C)(C)NC(=O)[C@@H](NC(=O)[C@H](CCCCNC(C)=O)NC(=O)[C@H](C)NC(=O)[C@H](CCCNC(=N)N)NC(=O)[C@@H](NC(=O)[C@H](CCCCN)NC(=O)[C@H](CCC(=O)O)NC(=O)[C@H](CCCNC(=N)N)NC(=O)CNC(=O)[C@H](CCC(=O)O)NC(=O)[C@H](CC(C)C)NC(C)=O)C(C)C)[C@@H](C)CC)C(=O)N[C@@H](CO)C(=O)N[C@H](C(=O)N[C@@H](Cc1c[nH]c2ccccc12)C(=O)N[C@@H](CO)C(=O)N[C@@H](CCCCCN)C(=O)N[C@@H](CCCNC(=N)N)C(=O)N[C@@H](C)C(=O)N[C@@H](CCCCNC(C)=O)C(N)=O)[C@@H](C)O)C(=O)O)C(=O)O)C(=O)O` [compound 57] (Ac-LEGREKVRAK(Ac)I[Aib][Aib]EGK([Suc-X1])STWS[hLys]RAK(Ac)-NH2), the EC50 turned out to be 0.44 nM and the Emax was 98%.

With `CCCCCCCCCCCCCC(=O)N[C@@H](CCC(=O)N[C@@H](CCC(=O)N[C@@H](CCC(=O)NCCCOCCOCCOCCCNC(=O)CCC(=O)NCCCOCCOCCOCCCNC(=O)CCC(=O)NCCCOCCOCCOCCCNC(=O)CCC(=O)NCCCC[C@H](NC(=O)CNC(=O)[C@H](CCC(=O)O)NC(=O)C(C)(C)NC(=O)C(C)(C)NC(=O)[C@@H](NC(=O)[C@H](CCCCNC(C)=O)NC(=O)[C@H](C)NC(=O)[C@H](CCCNC(=N)N)NC(=O)[C@@H](NC(=O)[C@H](CCCCN)NC(=O)[C@H](CCC(=O)O)NC(=O)[C@H](CCCNC(=N)N)NC(=O)CNC(=O)[C@H](CCC(=O)O)NC(=O)[C@H](CC(C)C)NC(C)=O)C(C)C)[C@@H](C)CC)C(=O)N[C@@H](CO)C(=O)N[C@H](C(=O)N[C@@H](Cc1ccccc1)C(=O)N[C@@H](CO)C(=O)N[C@@](C)(CCCCN)C(=O)N[C@@H](CCCNC(=N)N)C(=O)N[C@@H](C)C(=O)N[C@@H](CCCCN)C(N)=O)[C@@H](C)O)C(=O)O)C(=O)O)C(=O)O` [compound 96] (Ac-LEGREKVRAK(Ac)I[Aib][Aib]EGK([Suc-X6])STFS[αMeK]RAK-NH2), the EC50 was 0.88 nM and the Emax worked out at 92%.

Regarding `CCCCCCCCCCCCCCCC(=O)N[C@@H](CCC(=O)N[C@@H](CCC(=O)N[C@@H](CCC(=O)NCCCOCCOCCOCCCNC(=O)CCC(=O)NCCCOCCOCCOCCCNC(=O)CCC(=O)NCCCOCCOCCOCCCNC(=O)CCC(=O)NCCCC[C@H](NC(=O)CNC(=O)[C@H](CCC(=O)O)NC(=O)C(C)(C)NC(=O)C(C)(C)NC(=O)[C@@H](NC(=O)[C@H](CCCCNC(C)=O)NC(=O)[C@H](C)NC(=O)[C@H](CCCNC(=N)N)NC(=O)[C@@H](NC(=O)[C@H](CCCCN)NC(=O)[C@H](CCC(=O)O)NC(=O)[C@H](CCCNC(=N)N)NC(=O)CNC(=O)[C@H](CCC(=O)O)NC(=O)[C@H](CC(C)C)NC(C)=O)C(C)C)[C@@H](C)CC)C(=O)N[C@@H](CO)C(=O)N[C@H](C(=O)N[C@@H](Cc1ccccc1)C(=O)N[C@H](C(=O)N[C@@H](CCCNC(=N)N)C(=O)N[C@@H](CCCNC(=N)N)C(=O)N[C@@H](C)C(=O)N[C@@H](CCCCNC(C)=O)C(N)=O)C(C)C)[C@@H](C)O)C(=O)O)C(=O)O)C(=O)O` [compound 94] (Ac-LEGREKVRAK(Ac)I[Aib][Aib]EGK([Suc-X1])STFVRRAK(Ac)-NH2), a half-maximal effect (EC50) was put at 1.74 nM and the Emax was 88%.

Regarding `CCCCCCCCCCCCCCCC(=O)N[C@@H](CCC(=O)N[C@@H](CCC(=O)N[C@@H](CCC(=O)NCCCOCCOCCOCCCNC(=O)CCC(=O)NCCCOCCOCCOCCCNC(=O)CCC(=O)NCCCOCCOCCOCCCNC(=O)CCC(=O)NCCCOCCOCCOCCCNC(=O)CCC(=O)NCCCC[C@H](NC(=O)CNC(=O)[C@H](CCC(=O)O)NC(=O)C(C)(C)NC(=O)C(C)(C)NC(=O)[C@@H](NC(=O)[C@H](CCCCNC(C)=O)NC(=O)[C@H](C)NC(=O)[C@H](CCCNC(=N)N)NC(=O)[C@@H](NC(=O)[C@H](CCCCN)NC(=O)[C@H](CCC(=O)O)NC(=O)[C@H](CCCNC(=N)N)NC(=O)CNC(=O)[C@H](CCC(=O)O)NC(=O)[C@H](CC(C)C)NC(C)=O)C(C)C)[C@@H](C)CC)C(=O)N[C@@H](CO)C(=O)N[C@H](C(=O)N[C@@H](Cc1ccccc1)C(=O)N[C@@H](CO)C(=O)N[C@@](C)(CCCCN)C(=O)N[C@@H](CCCNC(=N)N)C(=O)N[C@@H](C)C(=O)N[C@@H](CCCCNC(C)=O)C(N)=O)[C@@H](C)O)C(=O)O)C(=O)O)C(=O)O` [compound 78] (Ac-LEGREKVRAK(Ac)I[Aib][Aib]EGK([Suc-X5])STFS[αMeK]RAK(Ac)-NH2), the EC50 turned out to be 0.18 nM and the maximal effect (Emax) is 99%.

As a reminder, the EC50 is the midpoint of the concentration-response curve. Higher therefore signals a need for much substance. As usually defined, the Emax is the maximal effect, on the per cent scale that the assay sets.

Values taken from patent US11725036B2, “Modified lipidated relaxin B chain peptides and their therapeutic use” (Sanofi, priority 2018, dated 2023).
